Source: ChEMBL document CHEMBL1201862, “PubChem BioAssay data set” (2004)
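Values below derive from 48-hour exposures of cells grown in 96-well plates, with endpoints linearly interpolated between the two concentrations bracketing the appropriate inhibition level. The concentration for 50% growth inhibition is given as GI50.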 Active and inactive are the calls of the source. Cut-off read from the data, not from the text of the source: active = GI50 up to about 1.1 µM and inactive = higher.

Columns and labels:
Assay in all cases: growth of human tumour cells (NCI), 48 h
[1] = tested on: A498
[2] = tested on: K562
[3] = tested on: KM-20L2
[4] = tested on: COLO 205
[5] = tested on: A549
[6] = tested on: SK-MEL-28
[7] = tested on: UACC-62
[8] = tested on: RPMI-8226
[9] = tested on: 786-0
[10] = tested on: ACHN
[11] = tested on: NCI-H23
[12] = tested on: OVCAR-8
[13] = tested on: SW-620
[14] = tested on: HT-29
[15] = tested on: HOP-92
[16] = tested on: OVCAR-4
[17] = tested on: LXFL 529
[18] = tested on: RXF 393
[19] = tested on: Malme-3M
[20] = tested on: NCI-H460
[21] = tested on: LOX IMVI
[22] = tested on: SF-539
[23] = tested on: NCI-H522
[24] = tested on: DLD-1
[25] = tested on: OVCAR-5
[26] = tested on: HCT-15
[27] = tested on: CCRF-CEM
[28] = tested on: SN12C
[29] = tested on: SNB-75
[30] = tested on: SF-268
[31] = tested on: IGROV-1
[32] = tested on: DMS-273
[33] = tested on: RXF 631
[34] = tested on: HOP-18
[35] = tested on: EKVX
[36] = tested on: SK-OV-3
[37] = tested on: M19-MEL
[38] = tested on: UACC-257
[39] = tested on: SK-MEL-2
[40] = tested on: UO-31
[41] = tested on: U-251
[42] = tested on: TK-10
[43] = tested on: SNB-19
[44] = tested on: M14
[45] = tested on: HL-60
[46] = tested on: MOLT-4
[47] = tested on: CAKI-1
[48] = tested on: SNB-78
[49] = tested on: SR
[50] = tested on: HCC 2998
[51] = tested on: KM12
[52] = tested on: NCI-H226
[53] = tested on: OVCAR-3
[54] = tested on: SK-MEL-5
[55] = tested on: HCT-116
[56] = tested on: DMS-114
[57] = tested on: HOP-62
[58] = tested on: T47D
[59] = tested on: DU-145
[60] = tested on: MDA-MB-231
[61] = tested on: NCI/ADR-RES
[62] = tested on: SF-295
[63] = tested on: BT-549
[64] = tested on: MDA-MB-435
[65] = tested on: MCF7
[66] = tested on: MDA-N
[67] = tested on: Hs-578T
[68] = tested on: PC-3

O=C(O)CN(c1ccccc1)S(=O)(=O)c1ccc(Cl)cc1
GI50 [1]: > 100 µM (inactive) | GI50 [2]: > 100 µM (inactive) | GI50 [3]: > 100 µM (inactive) | GI50 [4]: > 100 µM (inactive) | GI50 [5]: > 100 µM (inactive) | GI50 [6]: > 100 µM (inactive) | GI50 [7]: > 100 µM (inactive) | GI50 [8]: > 100 µM (inactive) | GI50 [9]: > 100 µM (inactive) | GI50 [10]: > 100 µM (inactive) | GI50 [11]: > 100 µM (inactive) | GI50 [12]: > 100 µM (inactive) | GI50 [13]: > 100 µM (inactive) | GI50 [14]: > 100 µM (inactive) | GI50 [15]: > 100 µM (inactive) | GI50 [16]: > 100 µM (inactive) | GI50 [17]: > 100 µM (inactive) | GI50 [18]: > 100 µM (inactive) | GI50 [19]: > 100 µM (inactive) | GI50 [20]: > 100 µM (inactive) | GI50 [21]: > 100 µM (inactive) | GI50 [22]: > 100 µM (inactive) | GI50 [23]: > 100 µM (inactive) | GI50 [24]: > 100 µM (inactive) | GI50 [25]: > 100 µM (inactive) | GI50 [26]: > 100 µM | GI50 [27]: > 100 µM (inactive) | GI50 [28]: > 100 µM (inactive) | GI50 [29]: 59 µM (inactive) | GI50 [30]: > 100 µM (inactive) | GI50 [31]: > 100 µM (inactive) | GI50 [32]: > 100 µM (inactive) | GI50 [33]: > 100 µM (inactive) | GI50 [34]: > 100 µM (inactive) | GI50 [35]: > 100 µM (inactive) | GI50 [36]: > 100 µM (inactive) | GI50 [37]: > 100 µM (inactive) | GI50 [38]: > 100 µM (inactive) | GI50 [39]: > 100 µM (inactive) | GI50 [40]: > 100 µM (inactive) | GI50 [41]: > 100 µM (inactive) | GI50 [42]: > 100 µM (inactive) | GI50 [43]: > 100 µM (inactive) | GI50 [44]: > 100 µM (inactive) | GI50 [45]: > 100 µM (inactive) | GI50 [46]: > 100 µM (inactive) | GI50 [47]: > 100 µM (inactive)

COc1cc2ccc(CC(=O)O)cc2cc1OC
GI50 [1]: > 100 µM (inactive) | GI50 [2]: > 100 µM (inactive) | GI50 [3]: > 100 µM (inactive) | GI50 [4]: > 100 µM (inactive) | GI50 [48]: > 100 µM (inactive) | GI50 [5]: > 100 µM (inactive) | GI50 [6]: > 100 µM (inactive) | GI50 [7]: > 100 µM (inactive) | GI50 [49]: > 100 µM (inactive) | GI50 [50]: > 100 µM (inactive) | GI50 [8]: > 100 µM (inactive) | GI50 [9]: > 100 µM (inactive) | GI50 [10]: > 100 µM (inactive) | GI50 [11]: > 100 µM (inactive) | GI50 [12]: > 100 µM (inactive) | GI50 [13]: > 100 µM (inactive) | GI50 [14]: > 100 µM (inactive) | GI50 [16]: > 100 µM (inactive) | GI50 [17]: > 100 µM (inactive) | GI50 [18]: > 100 µM (inactive) | GI50 [19]: > 100 µM (inactive) | GI50 [23]: > 100 µM (inactive) | GI50 [24]: > 100 µM (inactive) | GI50 [51]: > 100 µM (inactive) | GI50 [52]: > 100 µM (inactive) | GI50 [26]: > 100 µM | GI50 [27]: > 100 µM (inactive) | GI50 [28]: > 100 µM (inactive) | GI50 [29]: > 100 µM (inactive) | GI50 [30]: > 100 µM (inactive) | GI50 [31]: > 100 µM (inactive) | GI50 [32]: > 100 µM (inactive) | GI50 [33]: > 100 µM (inactive) | GI50 [34]: > 100 µM (inactive) | GI50 [35]: > 100 µM (inactive) | GI50 [53]: > 100 µM (inactive) | GI50 [36]: > 100 µM (inactive) | GI50 [37]: > 100 µM (inactive) | GI50 [54]: > 100 µM (inactive) | GI50 [38]: > 100 µM (inactive) | GI50 [39]: > 100 µM (inactive) | GI50 [40]: > 100 µM (inactive) | GI50 [41]: > 100 µM (inactive) | GI50 [42]: > 100 µM (inactive) | GI50 [55]: > 100 µM (inactive) | GI50 [43]: > 100 µM (inactive) | GI50 [44]: > 100 µM (inactive) | GI50 [45]: > 100 µM (inactive) | GI50 [46]: > 100 µM (inactive) | GI50 [56]: > 100 µM (inactive) | GI50 [47]: > 100 µM (inactive) | GI50 [57]: > 100 µM (inactive)

Cc1nc2c(nc1C)C(=O)c1ccccc1C2=O
GI50 [58]: 2.99 µM (inactive) | GI50 [1]: 3.74 µM (inactive) | GI50 [2]: 7.67 µM (inactive) | GI50 [3]: 17.7 µM (inactive) | GI50 [4]: 2.78 µM (inactive) | GI50 [48]: 26.9 µM (inactive) | GI50 [5]: 1.25 µM (inactive) | GI50 [6]: 1.84 µM (inactive) | GI50 [7]: 0.859 µM (active) | GI50 [49]: 8.43 µM (inactive) | GI50 [50]: 6.58 µM (inactive) | GI50 [8]: 11.1 µM (inactive) | GI50 [9]: 8.38 µM (inactive) | GI50 [10]: 10.4 µM (inactive) | GI50 [11]: 0.5 µM (active) | GI50 [12]: 7.53 µM (inactive) | GI50 [13]: 2.98 µM (inactive) | GI50 [14]: 4.46 µM (inactive) | GI50 [15]: 18.1 µM (inactive) | GI50 [16]: 5.36 µM (inactive) | GI50 [59]: 1.36 µM (inactive) | GI50 [17]: 24.4 µM (inactive) | GI50 [18]: 15.4 µM (inactive) | GI50 [19]: 0.237 µM (active) | GI50 [20]: 0.923 µM (active) | GI50 [21]: 1.05 µM (active) | GI50 [60]: 7.55 µM (inactive) | GI50 [22]: 4.6 µM (inactive) | GI50 [23]: 3.54 µM (inactive) | GI50 [24]: 14.9 µM (inactive) | GI50 [61]: 2.87 µM (inactive) | GI50 [51]: 5.69 µM (inactive) | GI50 [25]: 4.97 µM (inactive) | GI50 [52]: 4.9 µM (inactive) | GI50 [26]: 2.58 µM | GI50 [27]: 8.55 µM (inactive) | GI50 [28]: 2.48 µM (inactive) | GI50 [62]: 1.48 µM (inactive) | GI50 [29]: 2.64 µM (inactive) | GI50 [30]: 10.2 µM (inactive) | GI50 [63]: 1.35 µM (inactive) | GI50 [31]: 7.96 µM (inactive) | GI50 [32]: 3.41 µM (inactive) | GI50 [64]: 0.204 µM (active) | GI50 [33]: 11.9 µM (inactive) | GI50 [34]: 3.29 µM (inactive) | GI50 [35]: 15.4 µM (inactive) | GI50 [53]: 2.68 µM (inactive) | GI50 [36]: 34.5 µM (inactive) | GI50 [37]: 0.258 µM (active) | GI50 [65]: 1.36 µM (inactive) | GI50 [66]: 0.245 µM (active) | GI50 [67]: 2.14 µM (inactive) | GI50 [54]: 0.188 µM (active) | GI50 [38]: 1.32 µM (inactive) | GI50 [39]: 1.24 µM (inactive) | GI50 [40]: 11.7 µM (inactive) | GI50 [41]: 6.55 µM (inactive) | GI50 [42]: 20.6 µM (inactive) | GI50 [55]: 4.65 µM (inactive) | GI50 [43]: 5.37 µM (inactive) | GI50 [44]: 0.871 µM (active) | GI50 [68]: 3.24 µM (inactive) | GI50 [45]: 3.98 µM (inactive) | GI50 [46]: 11.8 µM (inactive) | GI50 [56]: 9.64 µM (inactive) | GI50 [47]: 24.4 µM (inactive) | GI50 [57]: 5.2 µM (inactive)
